The results in this text go back to article PMC4992173, “Divergent synthesis and identification of the cellular targets of deoxyelephantopins” (Nature Communications, 2016).

For this experiment, the target named is T1, wt PPARG (Homo sapiens, UniProt P37231).
T1 construct: host or cells: 293T
Briefly: Gel-based competitive IC50 determination in 293T lysates: WT PPARγ. It is filed as binding. Conditions: wt PPARG expressed in 293T cells, lysate, 1 h, then 10 μM 24c-Cy3. From the text:
Finally, we sought to understand the molecular basis for PPARγ binding by the synthetic analogues of deoxyelephantopin through identification of the precise covalently modified amino acid site. There is literature precedent for oxidized fatty acids containing an α,β-unsaturated ketone to form a covalent bond with a cysteine in the ligand-binding site of PPARγ[53]. More recently, synthetic ligands binding reversibly to a distinct site were identified. […] Bearing in mind that the structurally simplified, and thus less prone to MS/MS fragmentation, probe 23c binds PPARγ as efficiently as 24c (Supplementary Fig. 13), we treated the recombinant nuclear receptor with the former compound, digested the protein and analysed the resulting peptides by LC–MS/MS. […]
Supplementary figure 21: Top: Fluorescence gels corresponding to the IC50 curves presented in the main text Figure 8b. γ fluorescence signal in percentage after 19a treatment. […]
Biological materials. […] Protein concentration was determined using the Bradford assay (Bio-Rad).
Cell culture and preparation of lysates. […] Cells were lysed by sonication to form cell lysates and protein concentration was determined using the Bradford […]

T1 sequence (P37231 whole entry): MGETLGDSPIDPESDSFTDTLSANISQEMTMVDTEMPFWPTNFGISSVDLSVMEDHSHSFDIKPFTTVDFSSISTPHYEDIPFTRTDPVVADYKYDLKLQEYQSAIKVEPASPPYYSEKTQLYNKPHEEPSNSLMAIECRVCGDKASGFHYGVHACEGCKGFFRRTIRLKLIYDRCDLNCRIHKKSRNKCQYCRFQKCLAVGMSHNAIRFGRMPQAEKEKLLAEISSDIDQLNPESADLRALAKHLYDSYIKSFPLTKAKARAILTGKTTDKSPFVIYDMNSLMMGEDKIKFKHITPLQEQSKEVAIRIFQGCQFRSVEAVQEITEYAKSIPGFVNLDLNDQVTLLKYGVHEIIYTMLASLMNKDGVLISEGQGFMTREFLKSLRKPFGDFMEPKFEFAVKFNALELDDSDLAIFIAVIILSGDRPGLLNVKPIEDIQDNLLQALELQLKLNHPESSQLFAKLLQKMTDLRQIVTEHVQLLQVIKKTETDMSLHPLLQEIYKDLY

`C=C(C)C(=O)O[C@H]1CC2=C[C@H](C/C=C\[C@H]3OC(=O)C(=C)[C@H]13)OC2=O` [19a]: the IC50 (commonly the concentration that inhibits the measured activity by half) was determined as 19 µM.
